Assay results reported in US20100267561A1, “HERBICIDAL PYRIDAZINONE DERIVATIVES” (priority 2007, published 2010).

Assays:
Experiment in all cases: Test B pre-/postemergence plant response
Type in all cases: in vivo
[1] = system: giant foxtail (Setaria faberii); conditions: for Foxtail, Giant plant response rating: 8 g ai/ha
Summary of the method: (§1)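 Preemergence and postemergence (plants 2-18 cm, 1- to 4-leaf stage) applications used test chemicals in a non-phytotoxic solvent with surfactant. Plants were held in a greenhouse 13 to 15 days, then rated visually against controls on a 0-100 scale (0 no effect, 100 complete control).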

[2] = system: green foxtail (Setaria viridis); conditions: for Foxtail, Green plant response rating: 8 g ai/ha
Summary of the method: as §1

soybean (Glycine max) = conditions: for Soybean plant response rating: 8 g ai/ha
Summary of the method: as §1

[3] = system: Russian thistle (Salsola iberica); conditions: Preemergence
Summary of the method: as §1

[4] = system: wheat (Triticum aestivum); conditions: for Wheat plant response rating: 8 g ai/ha
Summary of the method: as §1

[5] = system: goosegrass (Eleusine indica); conditions: for Goosegrass plant response rating: 8 g ai/ha
Summary of the method: as §1

[6] = system: velvetleaf (Abutilon theophrasti); conditions: for Velvetleaf plant response rating: 8 g ai/ha
Summary of the method: as §1

[7] = system: cocklebur (Xanthium strumarium); conditions: for Cocklebur plant response rating: 8 g ai/ha
Summary of the method: as §1

[8] = system: lambsquarters (Chenopodium album); conditions: for Lambsquarters plant response rating: 8 g ai/ha
Summary of the method: as §1

corn (Zea mays) = conditions: for Corn plant response rating: 8 g ai/ha
Summary of the method: as §1

[9] = system: bermudagrass (Cynodon dactylon); conditions: for Bermudagrass plant response rating: 8 g ai/ha
Summary of the method: as §1

[10] = system: woolly cupgrass (Eriochloa villosa); conditions: for Cupgrass, Woolly plant response rating: 8 g ai/ha
Summary of the method: as §1

kochia (Kochia scoparia) = conditions: for Kochia plant response rating: 8 g ai/ha
Summary of the method: as §1

[11] = system: yellow nutsedge (Cyperus esculentus); conditions: for Nutsedge, Yellow plant response rating: 8 g ai/ha
Summary of the method: as §1

[12] = Postemergence, 16 g ai/ha, scale 0 to 100
[13] = Postemergence, 31 g ai/ha, scale 0 to 100, 0 no effect, 100 complete control
[14] = Postemergence, 62 g ai/ha, scale 0 to 100, 0 no effect, 100 complete control
[15] = Preemergence, 16 g ai/ha, scale 0 to 100 (0 no effect, 100 complete control)
[16] = Preemergence, 31 g ai/ha, 0 to 100 scale, 0 no effect, 100 complete control
[17] = Preemergence, 62 g ai/ha, scale 0 to 100

Structure (SMILES): Cc1cc(-c2ccc(Cl)cc2)nn1-c1c(OC(=O)C(C)C)cnn(C)c1=O [Compound 34]
- Foxtail, Giant plant response rating ([1]; postemergence, 0-100 scale): 80
- Plant response rating, Foxtail, Giant [1, 12]: 90
- Plant response rating, Foxtail, Giant [1, 13]: 100
- Plant response rating, Foxtail, Giant [1, 14]: 100
- Plant response rating, Foxtail, Giant [1, 15]: 100
- Plant response rating, Foxtail, Giant [1, 16]: 100
- Plant response rating, Foxtail, Giant [1, 17]: 100
- Foxtail, Giant plant response rating ([1]; Preemergence, scale 0 to 100): 98
- Foxtail, Green plant response rating ([2]; postemergence, 0-100 scale): 60
- Plant response rating, Foxtail, Green [2, 12]: 90
- Plant response rating, Foxtail, Green [2, 13]: 100
- Plant response rating, Foxtail, Green [2, 14]: 100
- Plant response rating, Foxtail, Green [2, 15]: 100
- Plant response rating, Foxtail, Green [2, 16]: 100
- Plant response rating, Foxtail, Green [2, 17]: 100
- Foxtail, Green plant response rating ([2]; Preemergence, scale 0 to 100): 100
- Soybean plant response rating (soybean (Glycine max); postemergence, 0-100 scale): 0
- Plant response rating, Soybean (soybean (Glycine max); [12]): 0
- Plant response rating, Soybean (soybean (Glycine max); [14]): 0
- Plant response rating, Soybean (soybean (Glycine max); [15]): 0
- Plant response rating, Soybean (soybean (Glycine max); [16]): 0
- Plant response rating, Soybean (soybean (Glycine max); [17]): 0
- Soybean plant response rating (soybean (Glycine max); Preemergence, scale 0 to 100): 0
- Plant response rating, Russian Thistle ([3]; 16 g ai/ha, scale 0 to 100 (0 no effect, 100 complete control)): 0
- Plant response rating, Russian Thistle ([3]; 31 g ai/ha, 0 to 100 scale, 0 no effect, 100 complete control): 0
- Plant response rating, Russian Thistle ([3]; 62 g ai/ha, scale 0 to 100): 0
- Russian Thistle plant response rating ([3]; 8 g ai/ha, scale 0 to 100): 0
- Wheat plant response rating ([4]; postemergence, 0-100 scale): 0
- Plant response rating, Wheat [4, 12]: 40
- Plant response rating, Wheat [4, 14]: 90
- Plant response rating, Wheat [4, 15]: 0
- Plant response rating, Wheat [4, 16]: 30
- Plant response rating, Wheat [4, 17]: 40
- Wheat plant response rating ([4]; Preemergence, scale 0 to 100): 0
- Goosegrass plant response rating ([5]; postemergence, 0-100 scale): 50
- Plant response rating, Goosegrass [5, 12]: 55
- Plant response rating, Goosegrass [5, 13]: 70
- Plant response rating, Goosegrass [5, 14]: 80
- Plant response rating, Goosegrass [5, 15]: 85
- Plant response rating, Goosegrass [5, 16]: 98
- Plant response rating, Goosegrass [5, 17]: 100
- Goosegrass plant response rating ([5]; Preemergence, scale 0 to 100): 55
- Velvetleaf plant response rating ([6]; postemergence, 0-100 scale): 0
- Plant response rating, Velvetleaf [6, 12]: 0
- Plant response rating, Velvetleaf [6, 14]: 0
- Plant response rating, Velvetleaf [6, 15]: 0
- Plant response rating, Velvetleaf [6, 16]: 0
- Plant response rating, Velvetleaf [6, 17]: 0
- Velvetleaf plant response rating ([6]; Preemergence, scale 0 to 100): 0
- Cocklebur plant response rating ([7]; postemergence, 0-100 scale): 0
- Plant response rating, Cocklebur [7, 12]: 0
- Plant response rating, Cocklebur [7, 13]: 0
- Plant response rating, Cocklebur [7, 14]: 0
- Plant response rating, Cocklebur [7, 15]: 0
- Plant response rating, Cocklebur [7, 16]: 0
- Plant response rating, Cocklebur [7, 17]: 0
- Cocklebur plant response rating ([7]; Preemergence, scale 0 to 100): 0
- Lambsquarters plant response rating ([8]; postemergence, 0-100 scale): 0
- Plant response rating, Lambsquarters [8, 12]: 0
- Plant response rating, Lambsquarters [8, 13]: 0
- Plant response rating, Lambsquarters [8, 14]: 0
- Plant response rating, Lambsquarters [8, 15]: 0
- Plant response rating, Lambsquarters [8, 16]: 0
- Plant response rating, Lambsquarters [8, 17]: 0
- Lambsquarters plant response rating ([8]; Preemergence, scale 0 to 100): 0
- Corn plant response rating (corn (Zea mays); postemergence, 0-100 scale): 0
- Plant response rating, Corn (corn (Zea mays); [12]): 98
- Plant response rating, Corn (corn (Zea mays); [13]): 98
- Plant response rating, Corn (corn (Zea mays); [14]): 98
- Plant response rating, Corn (corn (Zea mays); [15]): 65
- Plant response rating, Corn (corn (Zea mays); [16]): 85
- Plant response rating, Corn (corn (Zea mays); [17]): 95
- Corn plant response rating (corn (Zea mays); Preemergence, scale 0 to 100): 0
- Bermudagrass plant response rating ([9]; postemergence, 0-100 scale): 65
- Plant response rating, Bermudagrass [9, 12]: 100
- Plant response rating, Bermudagrass [9, 13]: 100
- Plant response rating, Bermudagrass [9, 14]: 100
- Bermudagrass plant response rating ([9]; Preemergence, scale 0 to 100 (0 no effect, 100 complete control)): 50
- Plant response rating, Bermudagrass [9, 15]: 98
- Plant response rating, Bermudagrass [9, 16]: 98
- Plant response rating, Bermudagrass [9, 17]: 100
- Cupgrass, Woolly plant response rating ([10]; postemergence, 0-100 scale): 75
- Plant response rating, Cupgrass, Woolly [10, 12]: 90
- Plant response rating, Cupgrass, Woolly [10, 13]: 100
- Plant response rating, Cupgrass, Woolly [10, 14]: 100
- Plant response rating, Cupgrass, Woolly [10, 15]: 90
- Plant response rating, Cupgrass, Woolly [10, 16]: 95
- Plant response rating, Cupgrass, Woolly [10, 17]: 95
- Cupgrass, Woolly plant response rating ([10]; Preemergence, scale 0 to 100): 55
- Kochia plant response rating (kochia (Kochia scoparia); postemergence, 0-100 scale): 0
- Plant response rating, Kochia (kochia (Kochia scoparia); [12]): 0
- Plant response rating, Kochia (kochia (Kochia scoparia); [13]): 0
- Plant response rating, Kochia (kochia (Kochia scoparia); [14]): 0
- Plant response rating, Kochia (kochia (Kochia scoparia); [15]): 0
- Plant response rating, Kochia (kochia (Kochia scoparia); [16]): 0
- Plant response rating, Kochia (kochia (Kochia scoparia); [17]): 0
- Kochia plant response rating (kochia (Kochia scoparia); Preemergence, scale 0 to 100): 0
- Nutsedge, Yellow plant response rating ([11]; postemergence, 0-100 scale): 0
- Plant response rating, Nutsedge, Yellow [11, 12]: 0
- Plant response rating, Nutsedge, Yellow [11, 13]: 0
- Plant response rating, Nutsedge, Yellow [11, 14]: 0
- Plant response rating, Nutsedge, Yellow [11, 15]: 0
- Plant response rating, Nutsedge, Yellow [11, 16]: 0
- Plant response rating, Nutsedge, Yellow [11, 17]: 0
- Nutsedge, Yellow plant response rating ([11]; Preemergence, scale 0 to 100): 0
